# Measured values from paper PMC6934184, “Selective DNA-PKcs inhibition extends the therapeutic index of localized radiotherapy and chemotherapy” (The Journal of Clinical Investigation, 2019).
# Target: T1, NTRK1 (TRKA) (Homo sapiens, UniProt P04629)
# T1 construct: purchased Thermo Fisher Scientific (Life Technologies) SelectScreen
# Assay: SelectScreen Z'LYTE
# Format: biochemical
# Summary of the method: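 SelectScreen broad panel; activity (Z'LYTE, Adapta) plus binding formats. ATP: Km app for CSF1R Z'LYTE; 10 for CAMK1 Adapta. Readout = % per kinase.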
# T1 sequence (P04629 33-796): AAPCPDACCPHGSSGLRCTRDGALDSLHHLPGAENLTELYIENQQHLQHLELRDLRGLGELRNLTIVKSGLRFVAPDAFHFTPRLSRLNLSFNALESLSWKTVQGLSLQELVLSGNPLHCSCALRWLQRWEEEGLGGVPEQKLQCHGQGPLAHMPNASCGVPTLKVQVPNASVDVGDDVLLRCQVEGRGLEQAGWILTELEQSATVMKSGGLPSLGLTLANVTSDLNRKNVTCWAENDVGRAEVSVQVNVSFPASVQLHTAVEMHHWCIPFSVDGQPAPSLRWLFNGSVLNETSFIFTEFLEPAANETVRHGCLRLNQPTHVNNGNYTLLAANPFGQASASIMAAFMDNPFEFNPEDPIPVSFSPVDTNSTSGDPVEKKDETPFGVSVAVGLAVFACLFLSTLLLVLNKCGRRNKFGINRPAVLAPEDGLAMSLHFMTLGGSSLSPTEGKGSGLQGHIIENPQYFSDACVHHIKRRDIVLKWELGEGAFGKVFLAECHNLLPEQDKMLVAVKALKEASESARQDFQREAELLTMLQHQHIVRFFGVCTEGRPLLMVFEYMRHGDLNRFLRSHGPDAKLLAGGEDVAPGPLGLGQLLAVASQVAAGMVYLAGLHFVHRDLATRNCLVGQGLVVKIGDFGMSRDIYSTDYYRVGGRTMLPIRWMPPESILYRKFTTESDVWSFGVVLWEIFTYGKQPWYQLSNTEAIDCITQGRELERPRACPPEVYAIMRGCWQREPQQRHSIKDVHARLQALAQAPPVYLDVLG
compound,measurement,value
CN(C(=O)CN1CCOCC1)c1ccc2sc3c(-c4cccc5c(=O)cc(N6CC7CCC(C6)O7)oc45)cccc3c2c1 [NU5455],inhibition at 1 µM,1.3%
